We go through one substance from patent US7262173B2, “Chemosensitizing with liposomes containing oligonucleotides” (Georgetown University, priority 1997, dated 2007).

Data set [1] concerns SQ-20B cells. Nature of the data set: Radiation survival dose response assay. Format: cell-based, human. Particulars: free ODN 100 μm. The method, then:
The appropriate numbers of SQ-20B cells were seeded in duplicate T-25 tissue culture flasks (Corning, N.Y., USA) in medium containing 20% FBS, and allowed to attach for 8 h at 37° C. […] Irradiations were performed using ^137Cs gamma irradiator (JL Shepard MARK I irradiator) and a dose rate of 114 cGy/min. The cells were irradiated with total doses of 1 Gy, 3 Gy, 5 Gy and 13 Gy, followed by incubation for 2 h. The medium in all flasks was then replaced with 20% FBS containing medium and incubations continued for 7–10 days. Surviving colonies were fixed and stained with 0.5% methylene blue and 0.13% carbol fuchsin in methanol. Colonies containing 50 or more cells were scored and data were fitted to the computer-generated single-hit multitarget and linear-quadratic models of radiation survival response.
SQ-20B cells treated with liposome-encapsulated ATG-AS raf ODN (SEQ ID NO:1) are radiosensitive. Radiation survival dose responses of SQ-20B cells exposed to LE-ATG-AS raf ODN (SEQ ID NO:1), LE-ATG-S raf ODN (SEQ ID NO:3), or blank liposomes are presented in Table 1. […] The single-hit, multitarget (target model) and the linear quadratic model (LQ) are most commonly used to analyze cellular radiation survival. The target model is based on the parameters D0 and fl, where D0 is the inverse of the terminal slope of the survival curve and fl is the extrapolation of this slope to the ordinate. […]

The test system of data set [2] is SQ-20B cells. Description: Intracellular raf ODN stability assay (PC/CHOL/DDAB liposomes). The format is cell-based, human. Particulars: 10 μM for 4 hours, then 20% FBS medium up to 24 hours; denaturing gel. The method, then: FIG. 2: (a) Time-course of cellular uptake of LE-ATG-AS raf ODN (SEQ ID NO:1), SQ-20B cells were incubated with ^32P-5 end labeled and an excess of unlabeled LE-ATG-AS raf ODN (SEQ ID NO:1) (10 μM) for indicated times as described in the experimental procedures. Results are mean±s.d from two independent experiments each performed in duplicate, (b) Intracellular stability of LE-ATG-AS raf ODN (SEQ ID NO:1). Cells were incubated with ^32P-end labeled and an excess of unlabeled LE-ATG-AS raf ODN (SEQ ID NO:1) (10 μM in 1% FBS containing medium for […], washed with PBS and then incubations continued in 20% FBS containing medium for 0 hour (lane 2), 2 hours (lane 3), 8 hours (lane 4), 12 hours (lane 5), and 24 hours (lane 6). Cells were lysed and ODNs in various samples were analyzed by denaturing gel electrophoresis as explained in the experimental procedures. Lane 2, radiolabeled control LE-ATG-AS raf ODN (SEQ ID NO: 1); 15-mer, ATG-AS raf ODN (SEQ ID NO:1) migrations of xylene cyanol (XC) and bromophenol blue (BP) are indicated.
For ODN stability studies, cells were seeded and incubated with 10 μM ^32P-labeled LE-ATG-AS raf ODN (SEQ ID NO:1) or ATG-AS raf ODN (SEQ ID NO:1) (1×10^6 c.p.m./ml) for 4 h at 37° C. in 1% FBS containing medium. […] ODNs were extracted with phenol: chloroform, and the aqueous fractions were collected and aliquots were analyzed by scintillation counting. […]

For the substance “5′-GTG-CTCCATTGATGC-3′ (antisense GTGCTCCATTGATGC; DNA, linkages s1 o12 s1 (s phosphorothioate, o phosphodiester), methylation of C not given here) [ATG-AS raf ODN, antisense ODN to translation initiation site of human c-raf-1 cDNA; one terminal base linkage at each end phosphorothioate]”, in the data set on SQ-20B cells [1], the “dose modifying factor (DMF)” value is listed as “approximately 1.4”. Also, in the data set with SQ-20B cells [2], the “intracellular integrity of ODN” value is recorded as “no detectable ODN at all time-points”.
